Laboratory results from PubChem BioAssay AID248 (DTP/NCI, 2004).
Where “and” joins values, the source holds several entries; their conditions need not be identical. Equal values may be shown once. Toxic doses and inconclusive results are not listed.

System: L1210 leukemia ip in BDF1 mice, survival T/C
Assay: NCI In Vivo Anticancer Drug Screen. Data for tumor model L1210 Leukemia (intraperitoneal) in B6D2F1 (BDF1) mice
Conditions: higher = longer survival
Summary of the method: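 In this screen, tumor-bearing mice given compound are compared to those given vehicle, and their survival values are reported as a treated-to-control quotient.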

In the case of `COc1cc2c[n+](C)c3c4cc5c(cc4ccc3c2cc1OC)OCO5`, the T/C (endpoint: mean survival time, dose: 1.0 mg/kg/injection, schedule: Q01DX009 (ip), vehicle: saline) is reported as 109 % of control and 120 % of control, the T/C (endpoint: mean survival time, dose: 10.0 mg/kg/injection, schedule: Q01DX009 (ip), vehicle: saline) is reported as 118 % of control and the T/C (endpoint: mean survival time, dose: 40.0 mg/kg/injection, schedule: Q01DX009 (ip), vehicle: saline) is reported as 121 % of control. For the same molecule, the T/C (endpoint: mean survival time, dose: 64.0 mg/kg/injection, schedule: Q01DX009 (ip), vehicle: saline) was 117 % of control and 121 % of control, the T/C (endpoint: mean survival time, dose: 80.0 mg/kg/injection, schedule: Q04DX003 (ip), vehicle: saline) was 150 % of control and the T/C (endpoint: mean survival time, dose: 100.0 mg/kg/injection, schedule: Q04DX002 (ip), vehicle: Klucel (hydroxypropylcellulose) (HPC)) was 111 % of control. For the same molecule, the T/C (endpoint: mean survival time, dose: 200.0 mg/kg/injection, schedule: Q04DX002 (ip), vehicle: Klucel (hydroxypropylcellulose) (HPC)) was 111 % of control, the T/C (endpoint: mean survival time, dose: 400.0 mg/kg/injection, schedule: Q04DX002 (ip), vehicle: Klucel (hydroxypropylcellulose) (HPC)) was 107 % of control and the T/C (endpoint: median survival time, dose: 1.0 mg/kg/injection, schedule: Q03HX024 (ip), vehicle: saline) was 114 % of control. The T/C (endpoint: median survival time, dose: 2.0 mg/kg/injection, schedule: Q03HX016 (ip), vehicle: saline) was 124 % of control, the T/C (endpoint: median survival time, dose: 4.0 mg/kg/injection, schedule: Q03HX008 (ip), vehicle: saline) was 121 % of control and the T/C (endpoint: median survival time, dose: 4.0 mg/kg/injection, schedule: Q03HX016 (ip), vehicle: saline) was 119 % of control. The T/C (endpoint: median survival time, dose: 8.0 mg/kg/injection, schedule: Q04DX003 (ip), vehicle: saline) was 103 % of control, the T/C (endpoint: median survival time, dose: 8.0 mg/kg/injection, schedule: Q08DX002 (ip), vehicle: saline) was 105 % of control and the T/C (endpoint: median survival time, dose: 16.0 mg/kg/injection, schedule: Q01DX009 (oral), vehicle: saline) was 105 % of control. For the same molecule, the T/C (endpoint: median survival time, dose: 16.0 mg/kg/injection, schedule: Q03HX008 (ip), vehicle: saline) was 121 % of control, the T/C (endpoint: median survival time, dose: 16.0 mg/kg/injection, schedule: Q04DX003 (ip), vehicle: saline) was 101 % of control and the T/C (endpoint: median survival time, dose: 16.0 mg/kg/injection, schedule: Q08DX002 (ip), vehicle: saline) was 103 % of control. The T/C (endpoint: median survival time, dose: 32.0 mg/kg/injection, schedule: Q01DX001 (ip), vehicle: saline) was 121 % of control, the T/C (endpoint: median survival time, dose: 32.0 mg/kg/injection, schedule: Q01DX009 (oral), vehicle: saline) was 109 % of control and the T/C (endpoint: median survival time, dose: 32.0 mg/kg/injection, schedule: Q04DX003 (ip), vehicle: saline) was 101 % of control. The T/C (endpoint: median survival time, dose: 64.0 mg/kg/injection, schedule: Q01DX001 (ip), vehicle: saline) was 112 % of control, the T/C (endpoint: median survival time, dose: 64.0 mg/kg/injection, schedule: Q01DX009 (ip), vehicle: saline) was 112 % of control and the T/C (endpoint: median survival time, dose: 64.0 mg/kg/injection, schedule: Q01DX009 (oral), vehicle: saline) was 103 % of control. For the same molecule, the T/C (endpoint: median survival time, dose: 64.0 mg/kg/injection, schedule: Q04DX003 (ip), vehicle: saline) was 101 % of control, the T/C (endpoint: median survival time, dose: 128.0 mg/kg/injection, schedule: Q01DX001 (ip), vehicle: saline) was 121 % of control and the T/C (endpoint: median survival time, dose: 128.0 mg/kg/injection, schedule: Q01DX009 (oral), vehicle: saline) was 102 % of control. The T/C (endpoint: median survival time, dose: 128.0 mg/kg/injection, schedule: Q04DX003 (ip), vehicle: saline) was 87 % of control, the T/C (endpoint: median survival time, dose: 128.0 mg/kg/injection, schedule: Q08DX002 (ip), vehicle: saline) was 101 % of control and the T/C (endpoint: median survival time, dose: 256.0 mg/kg/injection, schedule: Q01DX009 (oral), vehicle: saline) was 100 % of control. For the same molecule, the T/C (endpoint: median survival time, dose: 512.0 mg/kg/injection, schedule: Q01DX009 (oral), vehicle: saline) was 105 % of control.
`NC(=O)N/N=C/c1[nH]c(=S)[nH]c(=O)c1Cc1ccc(Br)cc1` was tested, and the T/C (endpoint: mean survival time, dose: 100.0 mg/kg/injection, schedule: Q01DX001 (ip), vehicle: saline with Tween-80) was 107 % of control, the T/C (endpoint: mean survival time, dose: 200.0 mg/kg/injection, schedule: Q01DX001 (ip), vehicle: saline with Tween-80) was 95 % of control and the T/C (endpoint: mean survival time, dose: 400.0 mg/kg/injection, schedule: Q01DX001 (ip), vehicle: saline with Tween-80) was 98 % of control.
For `CC[N+](C)(C)CCC#N`, the T/C (endpoint: mean survival time, dose: 10.0 mg/kg/injection, schedule: Q01DX001 (ip), vehicle: saline) was 95 % of control, the T/C (endpoint: mean survival time, dose: 20.0 mg/kg/injection, schedule: Q01DX001 (ip), vehicle: saline) was 101 % of control and the T/C (endpoint: mean survival time, dose: 40.0 mg/kg/injection, schedule: Q01DX001 (ip), vehicle: saline) was 101 % of control.
For `O=S(=O)(OCC1CO1)c1ccc(N=Nc2ccccc2)cc1` (stereo not drawn), the T/C (endpoint: mean survival time, dose: 100.0 mg/kg/injection, schedule: Q01DX008 (ip), vehicle: Klucel (hydroxypropylcellulose) (HPC)) was 98 % of control, the T/C (endpoint: mean survival time, dose: 200.0 mg/kg/injection, schedule: Q01DX008 (ip), vehicle: Klucel (hydroxypropylcellulose) (HPC)) was 90 % of control and the T/C (endpoint: mean survival time, dose: 400.0 mg/kg/injection, schedule: Q01DX008 (ip), vehicle: Klucel (hydroxypropylcellulose) (HPC)) was 96 % of control.
`c1ccc(CN2CCN(CC3CC3)CC2)cc1` was tested, and the T/C (endpoint: mean survival time, dose: 12.5 mg/kg/injection, schedule: Q04DX003 (ip), vehicle: Klucel (hydroxypropylcellulose) (HPC)) was 103 % of control, the T/C (endpoint: mean survival time, dose: 25.0 mg/kg/injection, schedule: Q04DX003 (ip), vehicle: Klucel (hydroxypropylcellulose) (HPC)) was 98 % of control and the T/C (endpoint: mean survival time, dose: 50.0 mg/kg/injection, schedule: Q04DX003 (ip), vehicle: Klucel (hydroxypropylcellulose) (HPC)) was 110 % of control.
